Data published in the NIST ThermoML archive (doi:10.1021/je700261b).
± gives the expanded uncertainty stated by the source.

Experiment: xn = mol fraction of the nth substance listed
Conditions: Liquid

Q: With `CCCCO` [butan-1-ol] + O=C=O as the molecule, how does the mass density (333.08 K, 16957 kPa, x2 = 0.1842) read?
A: The mass density was 803.2 ± 0.59 kg/m3.

Q: And the mass density (333.08 K, 18103 kPa, x2 = 0.1842)?
A: Its mass density is 804.27 ± 0.6 kg/m3.

Q: And the mass density (333.08 K, 19053 kPa, x2 = 0.1842)?
A: Its mass density is 805.14 ± 0.61 kg/m3.

Q: What about the mass density (333.08 K, 20044 kPa, x2 = 0.1842) of the same molecule?
A: Its mass density is 806.03 ± 0.62 kg/m3.

Q: And the mass density (333.08 K, 21090 kPa, x2 = 0.1842)?
A: The mass density was 807.01 ± 0.63 kg/m3.

Q: What about the mass density (333.08 K, 21974 kPa, x2 = 0.1842) of the same molecule?
A: Its mass density is 807.82 ± 0.64 kg/m3.

Q: And the mass density (333.08 K, 22960 kPa, x2 = 0.1842)?
A: The mass density was 808.7 ± 0.65 kg/m3.

Q: And the mass density (333.08 K, 24014 kPa, x2 = 0.1842)?
A: Its mass density is 809.64 ± 0.66 kg/m3.

Q: What about the mass density (333.08 K, 25045 kPa, x2 = 0.1842) of the same molecule?
A: Its mass density is 810.58 ± 0.67 kg/m3.

Q: And the mass density (342.85 K, 1014 kPa, x2 = 0.0251)?
A: Its mass density is 772.92 ± 0.47 kg/m3.

Q: What about the mass density (342.85 K, 2013 kPa, x2 = 0.0251) of the same molecule?
A: The mass density was 773.93 ± 0.48 kg/m3.

Q: And the mass density (342.85 K, 2982 kPa, x2 = 0.0251)?
A: The mass density was 774.9 ± 0.48 kg/m3.

Q: What about the mass density (342.85 K, 4039 kPa, x2 = 0.0251) of the same molecule?
A: Its mass density is 775.94 ± 0.49 kg/m3.

Q: And the mass density (342.85 K, 5057 kPa, x2 = 0.0251)?
A: Its mass density is 776.91 ± 0.5 kg/m3.

Q: And the mass density (342.85 K, 5993 kPa, x2 = 0.0251)?
A: The mass density was 777.79 ± 0.51 kg/m3.

Q: And the mass density (342.85 K, 7067 kPa, x2 = 0.0251)?
A: Its mass density is 778.78 ± 0.52 kg/m3.

Q: And the mass density (342.85 K, 8025 kPa, x2 = 0.0251)?
A: Its mass density is 779.69 ± 0.53 kg/m3.

Q: What about the mass density (342.85 K, 9013 kPa, x2 = 0.0251) of the same molecule?
A: The mass density was 780.6 ± 0.54 kg/m3.

Q: What about the mass density (342.85 K, 10012 kPa, x2 = 0.0251) of the same molecule?
A: The mass density was 781.51 ± 0.55 kg/m3.

Q: What about the mass density (342.85 K, 11010 kPa, x2 = 0.0251) of the same molecule?
A: The mass density was 782.43 ± 0.56 kg/m3.

Q: And the mass density (342.85 K, 11969 kPa, x2 = 0.0251)?
A: The mass density was 783.27 ± 0.57 kg/m3.

Q: And the mass density (342.85 K, 13080 kPa, x2 = 0.0251)?
A: The mass density was 784.23 ± 0.58 kg/m3.

Q: What about the mass density (342.85 K, 13925 kPa, x2 = 0.0251) of the same molecule?
A: The mass density was 784.95 ± 0.59 kg/m3.

Q: And the mass density (342.85 K, 15055 kPa, x2 = 0.0251)?
A: Its mass density is 785.93 ± 0.6 kg/m3.

Q: What about the mass density (342.85 K, 16002 kPa, x2 = 0.0251) of the same molecule?
A: Its mass density is 786.72 ± 0.61 kg/m3.

Q: And the mass density (342.85 K, 17016 kPa, x2 = 0.0251)?
A: The mass density was 787.57 ± 0.62 kg/m3.

Q: What about the mass density (342.85 K, 18007 kPa, x2 = 0.0251) of the same molecule?
A: Its mass density is 788.39 ± 0.63 kg/m3.

Q: What about the mass density (342.85 K, 19019 kPa, x2 = 0.0251) of the same molecule?
A: The mass density was 789.22 ± 0.64 kg/m3.

Q: And the mass density (342.85 K, 20027 kPa, x2 = 0.0251)?
A: Its mass density is 790.06 ± 0.65 kg/m3.

Q: What about the mass density (342.85 K, 20996 kPa, x2 = 0.0251) of the same molecule?
A: The mass density was 790.82 ± 0.66 kg/m3.

Q: What about the mass density (342.85 K, 22019 kPa, x2 = 0.0251) of the same molecule?
A: Its mass density is 791.65 ± 0.67 kg/m3.

Q: And the mass density (342.85 K, 23034 kPa, x2 = 0.0251)?
A: Its mass density is 792.46 ± 0.68 kg/m3.

Q: What about the mass density (342.85 K, 24052 kPa, x2 = 0.0251) of the same molecule?
A: Its mass density is 793.28 ± 0.69 kg/m3.

Q: What about the mass density (342.85 K, 25090 kPa, x2 = 0.0251) of the same molecule?
A: The mass density was 794.07 ± 0.7 kg/m3.

Q: What about the mass density (342.87 K, 15510 kPa, x2 = 0.9698) of the same molecule?
A: Its mass density is 598.32 ± 1.1 kg/m3.

Q: What about the mass density (342.87 K, 16022 kPa, x2 = 0.9698) of the same molecule?
A: Its mass density is 613.97 ± 1.1 kg/m3.

Q: What about the mass density (342.87 K, 17033 kPa, x2 = 0.9698) of the same molecule?
A: The mass density was 640.58 ± 1 kg/m3.

Q: And the mass density (342.87 K, 17988 kPa, x2 = 0.9698)?
A: The mass density was 661.78 ± 0.98 kg/m3.

Q: What about the mass density (342.87 K, 19001 kPa, x2 = 0.9698) of the same molecule?
A: Its mass density is 681.25 ± 0.94 kg/m3.

Q: What about the mass density (342.87 K, 20036 kPa, x2 = 0.9698) of the same molecule?
A: Its mass density is 698.56 ± 0.91 kg/m3.

Q: What about the mass density (342.87 K, 21044 kPa, x2 = 0.9698) of the same molecule?
A: The mass density was 713.53 ± 0.89 kg/m3.

Q: What about the mass density (342.87 K, 22014 kPa, x2 = 0.9698) of the same molecule?
A: The mass density was 726.53 ± 0.87 kg/m3.

Q: What about the mass density (342.87 K, 23003 kPa, x2 = 0.9698) of the same molecule?
A: Its mass density is 738.6 ± 0.85 kg/m3.

Q: And the mass density (342.87 K, 24019 kPa, x2 = 0.9698)?
A: Its mass density is 749.89 ± 0.84 kg/m3.

Q: What about the mass density (342.87 K, 24944 kPa, x2 = 0.9698) of the same molecule?
A: The mass density was 759.52 ± 0.83 kg/m3.

Q: And the mass density (342.88 K, 1975 kPa, x2 = 0.0857)?
A: The mass density was 776.2 ± 0.48 kg/m3.

Q: And the mass density (342.88 K, 2955 kPa, x2 = 0.0857)?
A: Its mass density is 777.28 ± 0.48 kg/m3.

Q: And the mass density (342.88 K, 4033 kPa, x2 = 0.0857)?
A: Its mass density is 778.42 ± 0.49 kg/m3.

Q: And the mass density (342.88 K, 5015 kPa, x2 = 0.0857)?
A: The mass density was 779.45 ± 0.5 kg/m3.

Q: And the mass density (342.88 K, 5957 kPa, x2 = 0.0857)?
A: The mass density was 780.4 ± 0.51 kg/m3.

Q: What about the mass density (342.88 K, 7027 kPa, x2 = 0.0857) of the same molecule?
A: Its mass density is 781.49 ± 0.52 kg/m3.

Q: What about the mass density (342.88 K, 7999 kPa, x2 = 0.0857) of the same molecule?
A: The mass density was 782.5 ± 0.53 kg/m3.

Q: What about the mass density (342.88 K, 9007 kPa, x2 = 0.0857) of the same molecule?
A: The mass density was 783.51 ± 0.54 kg/m3.

Q: What about the mass density (342.88 K, 10003 kPa, x2 = 0.0857) of the same molecule?
A: Its mass density is 784.47 ± 0.54 kg/m3.

Q: And the mass density (342.88 K, 11007 kPa, x2 = 0.0857)?
A: Its mass density is 785.43 ± 0.55 kg/m3.

Q: What about the mass density (342.88 K, 11951 kPa, x2 = 0.0857) of the same molecule?
A: Its mass density is 786.34 ± 0.56 kg/m3.

Q: And the mass density (342.88 K, 13010 kPa, x2 = 0.0857)?
A: The mass density was 787.34 ± 0.57 kg/m3.

Q: And the mass density (342.88 K, 14012 kPa, x2 = 0.0857)?
A: The mass density was 788.24 ± 0.58 kg/m3.

Q: What about the mass density (342.88 K, 15065 kPa, x2 = 0.0857) of the same molecule?
A: The mass density was 789.2 ± 0.59 kg/m3.

Q: What about the mass density (342.88 K, 15994 kPa, x2 = 0.0857) of the same molecule?
A: The mass density was 790.07 ± 0.6 kg/m3.

Q: What about the mass density (342.88 K, 17007 kPa, x2 = 0.0857) of the same molecule?
A: Its mass density is 790.98 ± 0.61 kg/m3.

Q: And the mass density (342.88 K, 17999 kPa, x2 = 0.0857)?
A: Its mass density is 791.83 ± 0.62 kg/m3.

Q: And the mass density (342.88 K, 18990 kPa, x2 = 0.0857)?
A: The mass density was 792.72 ± 0.63 kg/m3.

Q: And the mass density (342.88 K, 20029 kPa, x2 = 0.0857)?
A: Its mass density is 793.58 ± 0.64 kg/m3.

Q: And the mass density (342.88 K, 20993 kPa, x2 = 0.0857)?
A: The mass density was 794.43 ± 0.65 kg/m3.

Q: What about the mass density (342.88 K, 22004 kPa, x2 = 0.0857) of the same molecule?
A: Its mass density is 795.26 ± 0.66 kg/m3.

Q: What about the mass density (342.88 K, 23039 kPa, x2 = 0.0857) of the same molecule?
A: Its mass density is 796.17 ± 0.67 kg/m3.

Q: And the mass density (342.88 K, 24019 kPa, x2 = 0.0857)?
A: The mass density was 796.97 ± 0.68 kg/m3.

Q: What about the mass density (342.88 K, 25064 kPa, x2 = 0.0857) of the same molecule?
A: Its mass density is 797.88 ± 0.69 kg/m3.

Q: What about the mass density (342.92 K, 12062 kPa, x2 = 0.4972) of the same molecule?
A: The mass density was 795.68 ± 0.56 kg/m3.

Q: What about the mass density (342.92 K, 13090 kPa, x2 = 0.4972) of the same molecule?
A: The mass density was 797.59 ± 0.56 kg/m3.

Q: What about the mass density (342.92 K, 14017 kPa, x2 = 0.4972) of the same molecule?
A: The mass density was 799.27 ± 0.57 kg/m3.

Q: What about the mass density (342.92 K, 15047 kPa, x2 = 0.4972) of the same molecule?
A: The mass density was 801.1 ± 0.58 kg/m3.

Q: And the mass density (342.92 K, 16026 kPa, x2 = 0.4972)?
A: Its mass density is 802.79 ± 0.59 kg/m3.

Q: And the mass density (342.92 K, 17041 kPa, x2 = 0.4972)?
A: The mass density was 804.51 ± 0.59 kg/m3.

Q: And the mass density (342.92 K, 18053 kPa, x2 = 0.4972)?
A: Its mass density is 806.18 ± 0.6 kg/m3.

Q: And the mass density (342.92 K, 19028 kPa, x2 = 0.4972)?
A: The mass density was 807.77 ± 0.61 kg/m3.

Q: What about the mass density (342.92 K, 20046 kPa, x2 = 0.4972) of the same molecule?
A: The mass density was 809.4 ± 0.62 kg/m3.

Q: And the mass density (342.92 K, 21062 kPa, x2 = 0.4972)?
A: Its mass density is 810.98 ± 0.62 kg/m3.

Q: What about the mass density (342.92 K, 22043 kPa, x2 = 0.4972) of the same molecule?
A: Its mass density is 812.48 ± 0.63 kg/m3.

Q: What about the mass density (342.92 K, 22996 kPa, x2 = 0.4972) of the same molecule?
A: The mass density was 813.92 ± 0.64 kg/m3.

Q: What about the mass density (342.92 K, 24003 kPa, x2 = 0.4972) of the same molecule?
A: The mass density was 815.43 ± 0.65 kg/m3.

Q: And the mass density (342.92 K, 25073 kPa, x2 = 0.4972)?
A: Its mass density is 816.99 ± 0.65 kg/m3.
